Laboratory results as given in article PMC2878737 (Channels (Austin, Tex.), 2009).

Legend:
NaV1.2[F385C] = NaV1.2[F385C] (Rattus norvegicus, UniProt P04775, F385C); settings: cited from earlier work
NaV1.2 = NaV1.2 (Rattus norvegicus, UniProt P04775)
Sequence of NaV1.2 (P04775 whole entry, looked up): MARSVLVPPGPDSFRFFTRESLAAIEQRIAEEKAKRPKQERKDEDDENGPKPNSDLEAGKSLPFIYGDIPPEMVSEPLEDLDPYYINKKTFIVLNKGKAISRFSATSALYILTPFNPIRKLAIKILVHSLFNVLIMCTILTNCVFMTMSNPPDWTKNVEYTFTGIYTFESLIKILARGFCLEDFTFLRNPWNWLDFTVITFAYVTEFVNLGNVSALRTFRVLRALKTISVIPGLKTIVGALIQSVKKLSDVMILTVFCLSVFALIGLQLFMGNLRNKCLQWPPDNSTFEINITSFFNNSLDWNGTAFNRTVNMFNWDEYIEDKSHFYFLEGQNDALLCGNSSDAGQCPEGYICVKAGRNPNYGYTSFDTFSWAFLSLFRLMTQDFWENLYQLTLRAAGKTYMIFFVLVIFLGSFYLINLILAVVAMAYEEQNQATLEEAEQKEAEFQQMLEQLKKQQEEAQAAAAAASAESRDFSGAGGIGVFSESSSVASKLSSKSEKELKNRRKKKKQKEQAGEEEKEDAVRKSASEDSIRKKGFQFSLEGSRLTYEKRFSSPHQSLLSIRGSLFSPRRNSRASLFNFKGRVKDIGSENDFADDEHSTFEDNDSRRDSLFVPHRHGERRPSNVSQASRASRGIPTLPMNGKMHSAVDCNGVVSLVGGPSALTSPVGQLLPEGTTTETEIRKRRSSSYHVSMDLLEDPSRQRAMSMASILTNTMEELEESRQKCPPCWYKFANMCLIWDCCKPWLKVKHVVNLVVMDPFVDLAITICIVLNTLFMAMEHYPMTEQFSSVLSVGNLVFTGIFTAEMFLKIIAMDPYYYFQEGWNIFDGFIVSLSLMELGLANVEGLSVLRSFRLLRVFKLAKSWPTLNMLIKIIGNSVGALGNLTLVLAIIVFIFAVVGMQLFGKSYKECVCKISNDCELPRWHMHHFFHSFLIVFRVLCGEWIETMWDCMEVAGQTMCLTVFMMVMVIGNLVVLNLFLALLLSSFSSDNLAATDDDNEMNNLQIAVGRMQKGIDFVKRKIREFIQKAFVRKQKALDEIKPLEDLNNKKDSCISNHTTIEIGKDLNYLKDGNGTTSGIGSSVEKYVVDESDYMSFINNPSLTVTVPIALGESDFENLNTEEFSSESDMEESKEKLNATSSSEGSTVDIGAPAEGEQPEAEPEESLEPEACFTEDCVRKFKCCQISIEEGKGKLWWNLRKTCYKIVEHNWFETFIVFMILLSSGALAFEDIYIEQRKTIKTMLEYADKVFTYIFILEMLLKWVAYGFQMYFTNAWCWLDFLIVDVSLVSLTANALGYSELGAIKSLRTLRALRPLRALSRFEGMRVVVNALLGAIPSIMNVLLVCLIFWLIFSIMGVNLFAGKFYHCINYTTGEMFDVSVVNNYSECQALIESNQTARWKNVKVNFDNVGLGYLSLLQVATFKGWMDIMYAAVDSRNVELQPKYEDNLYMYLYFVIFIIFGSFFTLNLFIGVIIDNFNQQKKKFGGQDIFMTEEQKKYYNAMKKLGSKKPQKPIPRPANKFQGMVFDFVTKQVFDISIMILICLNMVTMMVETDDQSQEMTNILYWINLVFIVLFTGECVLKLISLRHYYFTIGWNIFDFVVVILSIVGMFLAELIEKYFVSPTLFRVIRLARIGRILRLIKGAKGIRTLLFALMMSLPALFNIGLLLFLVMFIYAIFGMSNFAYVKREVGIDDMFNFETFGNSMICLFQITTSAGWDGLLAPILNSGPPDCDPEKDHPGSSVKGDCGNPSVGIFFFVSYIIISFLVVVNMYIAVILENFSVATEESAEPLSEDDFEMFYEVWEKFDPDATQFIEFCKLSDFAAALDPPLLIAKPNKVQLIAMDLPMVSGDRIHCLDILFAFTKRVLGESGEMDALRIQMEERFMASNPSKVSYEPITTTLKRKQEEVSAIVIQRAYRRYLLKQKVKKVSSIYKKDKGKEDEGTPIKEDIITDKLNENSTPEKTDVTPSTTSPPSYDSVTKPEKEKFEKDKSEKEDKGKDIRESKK

Sequence of NaV1.2[F385C] (P04775 whole entry F385C, looked up): as the sequence (P04775 whole entry, looked up) above, with F385C counted along it

## NC1=N[C@H](O)[C@H]2[C@H]3O[C@]4(O)O[C@@H]([C@@H](O)[C@@]2(N1)[C@@H]4O)[C@]3(O)CO [TTX, Tetrodotoxin]
NaV1.2[F385C]
  sensitivity of NaV1.2[F385C]: insensitive
NaV1.2
  Plateau of block at saturating [toxin] (Langmuir fit): 100%
